From patent US20140135370A1, “TREATING CANCER WITH AN HSP90 INHIBITORY COMPOUND” (SYNTA PHARMACEUTICALS CORP., priority 2011, published 2014)
Read-outs that look alike come from different tables or passages of the source.

Legend:
[1] = test system: HCC70; experiment: 72 hr viability by CTG, HCC70; assay type: cell-based; conditions: Homo sapiens, HCC70, Basal A
Protocol: Breast cancer is a heterogeneous disease historically broken down into 4 subtypes. Various compounds were tested for their effects in cell viability assays using various breast cancer cell lines. Cellular viability was assessed using the CellTiter-Glo® Luminescent Cell Viability Assay (Promega, Madison, Wis., USA) according to the manufacturer's protocol. […] were seeded into 96-well plates based on optimal growth rates determined empirically for each line. […] CellTiter-Glo® was added (50% v/v) to the cells, and the plates incubated for 10 min prior to luminescent detection in a SpectraMax® Plus 384 microplate reader (Molecular Devices, Sunnyvale, Calif., USA). Data were normalized to percent of control and IC50 values used to determine the sensitivity of each line.

[2] = test system: MET, IGF-IR, AKT in MKN45 cells; experiment: Western blot of Hsp90 client proteins, MKN45; assay type: cell-based
[3] = test system: GIST; experiment: Phase 2 study in gastrointestinal stromal tumors (GIST); assay type: in vivo, human
Protocol: GIST status was assessed at 8 weeks per RECIST, until progression.

[4] = test system: solid tumors; experiment: Phase 2 study in solid tumors, twice-weekly infusion; assay type: in vivo, human
Source text: (§1) Serial PK and pharmacodynamic samples were obtained during cycle 1. Safety assessments included frequency and grade of adverse events (AEs), laboratory parameters and ECG changes.

[5] = test system: Hsp90 client proteins in AGS gastric cancer cells; experiment: Western blot of Hsp90 client proteins, AGS; assay type: cell-based
[6] = Serial PK in patients with solid tumors, twice-weekly infusion; assay type: in vivo, human
Source text: as §1

[7] = test system: human KRAS mutant NSCLC tumor xenografts; experiment: KRAS mutant NSCLC tumor xenografts in vivo; set-up: species or system mouse; conditions: single agent
Protocol: Female immunodeficient CD-1 (nude) mice (Charles River Laboratories, Wilmington, Mass.) were maintained in a pathogen-free environment, and all in vivo procedures were approved by the Synta Pharmaceuticals Corp. Institutional Animal Care and Use Committee. A549 NSCLC cells (7.5×10^6) were subcutaneously implanted into the animals. […] Tumor growth inhibition was determined as described previously. See Proia et al, PLoS One. 2011; 6(4):e18552.

[8] = test system: solid tumors; experiment: Phase I dose escalation study, twice-weekly administration in patients with solid tumors; assay type: in vivo, human; conditions: 41 of 54 enrolled patients assessable; 1-hour infusion 2 times per week, 3 weeks on, 1 week dose-free
Protocol: An open-label Phase 1 dose-escalation study in subjects with solid tumors was performed. […] The first infusion for the first three subjects was staggered by a minimum of 5 days between subjects. This staggered enrollment scheme was followed for the first cohort only.
Subsequent cohorts were originally planned to receive escalating doses of 4, 7, 10, 14, 19, 25, 33, 40 and 48 mg/m^2, provided that the previous dose was well-tolerated during cycle 1 (week 1-4). The dose escalation scheme was updated to 25, 50, 75 and 100 mg/m^2, provided that the previous dose was well-tolerated during cycle 1. Following the completion of enrollment at 50 mg/m^2 twice per week, subsequent cohorts were to be treated at 100 mg/m^2 (100% increase above prior dose) and 120 mg/m^2 (20% increase above prior dose), with further dose increments to be approximately 20% over the previous dose level, until the maximum tolerated dose (MTD) was determined. Enrollment was completed at 100 mg/m^2 and the next doses planned were 120 mg/m^2 and 144 mg/m^2.
There had to be at least three evaluable subjects in a cohort before dose escalation could occur. […] Once a subject experienced a DLT the cohort was expanded to six subjects. If only 1 of 6 subjects experienced a DLT, further dose escalation was allowed. However, if 2 of 3 or 2 of 6 subjects experienced a DLT, dose escalation terminated. […]

[9] = test system: metastatic breast cancer
Protocol: The primary endpoint of the trial was overall response rate using RECIST 1.1. Patients with HER2+ breast cancer were required to have received prior therapy with trastuzumab. No more than 3 lines of chemotherapy in the metastatic setting were permitted, but there was no limit on prior lines of hormone therapy. Patients were evaluated for response after 2 cycles. The trial used a Simon two-stage design requiring at least 3 responses among the first 22 patients, to allow expansion to a total of 40 patients.

[10] = test system: Detroit 562 H/N cancer cells; experiment: Single agent viability assay, Detroit 562, 72 hr; assay type: cell-based
Source text: Head and neck (H/N) cancer refers to a group of biologically similar cancers originating from the upper autodigestive tract. First line therapies include EGFR inhibitors and platins.

[11] = Pharmacokinetics in the Phase 1 combination trial with docetaxel; assay type: in vivo, human; conditions: patients
Protocol: A trial to evaluate three dose-level combinations of docetaxel and the compound of formula (I), administered on a three-week cycle, with the primary objective of determining an optimal dose for future clinical trials was performed. […] The standard of care dose level for docetaxel was 75 mg/m^2. A total of 19 patients received at least one dose of study treatment at the cut-off time. The median number of cycles of treatment was 4, with a range of 1 to 11 cycles of treatment. No prophylactic treatment for neutropenia was used.

[12] = test system: Hs746T; experiment: 72 hr viability by Syto60, Hs746T; assay type: cell-based; conditions: Homo sapiens
Protocol: Many of the oncoproteins associated with gastric cancer and Hsp90 client proteins including HER2, MET, RAS and the FGFR family. […] Cells were treated for 72 hr and viability determined by CTG (upper) or Syto60 (lower).

[13] = test system: Chk1 and Chk2 phosphorylation in Detroit 562 head and neck cancer cells; experiment: Western blot after bleomycin, Detroit 562; assay type: cell-based; conditions: 100 nM 24 hours prior to bleomycin (5 μM)
Protocol: Protein expression of Parp, P-Chk1, P-Chk2, and Gapdh (control) was measured at the indicated time points (1, 4, and 8 hours) after bleomycin treatment.
Protein expression was measured at the indicated time points after bleomycin treatment.

[14] = test system: NSCLC; experiment: Phase 2 clinical trial in NSCLC by KRAS, EGFR and ALK mutation status; assay type: in vivo, human
Protocol: Initial cohorts were defined by mutation status: A) EGFR mutation, KRAS wild-type B) EGFR wild-type, KRAS mutation C) EGFR wild-type, KRAS wild-type (WT). If ≧2/14 patients in A, B or C were progression-free at 16 weeks, enrollment increased to 23 patients for that cohort. Tumor response was assessed every 8 weeks. Cohort D was added to include 35 additional EGFR wild-type and KRAS wild-type patients with adenocarcinoma histology. FISH analysis for ALK translocation, was performed for Cohorts C and D.

For `CC(C)c1cc(-c2nnc(O)n2-c2ccc3c(ccn3C)c2)c(O)cc1O` [compound of formula (I), ganetespib], the IC50 [1] was 114 nM, the “Effect on MET, IGF-IR and AKT” value [2] was “complete degradation of MET and IGF-IR, followed by inactivation of AKT” and the “Patients with SD≧8 wks” value ([3]; 23 evaluable patients) was 8 patients. For the same compound, the “Patients with SD≧16 wks” value ([3]; 23 evaluable patients) was 4 patients, the Tolerability ([3]; once-weekly dosing) was “well-tolerated in patients with heavily pre-treated advanced GIST, with no evidence of severe liver, ocular, cardiac or renal toxicity” and the Tolerability ([4]; twice-weekly) was “well-tolerated administered twice-weekly”. The “Response in a patient with metastatic melanoma” value ([4]; twice-weekly dosing) was “confirmed durable PR by RECIST”, the “Effect on B-RAF expression” value [5] was “enhanced B-RAF expression” and the “Effect on Hsp90 client protein expression” value [5] was “abolished the expression of EGFR, IGF-IR, C-RAF and their down-stream effectors PI3K/AKT and MAPK”. For the same compound, the Distribution [6] was “rapid distribution”, the “Growth of tumor xenografts” value [7] was “effectively suppressed the growth” and the “Confirmed partial responses, melanoma” value [8] was 1 patient. The “Confirmed partial responses, triple negative breast cancer” value [8] was 1 patient, the “CBR (CR + PR + SD > 6 months)” value ([9]; ER+/HER2− (N = 6)) was 0 patients and the CR ([9]; ER+/HER2− (N = 6)) was 0 patients. For the same compound, the ORR ([9]; ER+/HER2− (N = 6)) was 0 patients, the PR ([9]; ER+/HER2− (N = 6)) was 0 patients and the “CBR (CR + PR + SD > 6 months)” value ([9]; HER2+ (N = 13)) was 2 (9%) patients (%). For the same compound, the CR ([9]; HER2+ (N = 13)) was 0 patients, the ORR ([9]; HER2+ (N = 13)) was 2 (9%) patients (%) and the PR ([9]; HER2+ (N = 13)) was 2 patients. The “CBR (CR + PR + SD > 6 months)” value ([9]; TNBC (N = 3)) was 0 patients, the CR ([9]; TNBC (N = 3)) was 0 patients and the ORR ([9]; TNBC (N = 3)) was 0 patients. The PR ([9]; TNBC (N = 3)) was 0 patients, the “CBR (CR + PR + SD > 6 months)” value ([9]; Total (N = 22)) was 2 (9%) patients (%) and the CR ([9]; Total (N = 22)) was 0 patients. The PR ([9]; Total (N = 22)) was 2 (9%) patients (%), the ORR ([9]; Total (N = 22), 200 mg/m^2 once weekly 3 weeks of 28 day cycle, RECIST 1.1) was 2 (9%) patients (%) and the “Extent of cell kill after 72 hr exposure” value [10] was “A fraction of cells remained viable”. For the same compound, the “Effect on docetaxel pharmacokinetics” value [11] was “no effect”, the “Pharmacokinetics alone versus administered prior to docetaxel” value [11] was “pharmacokinetic similarity” and the IC50 [12] was 384 nM. The “Effect on bleomycin-increased Chk1 and Chk2 phosphorylation” value [13] was “blocked”, the “Adverse events reported in >20% of patients” value ([14]; 73 patients, 200 mg/m^2 once weekly for 3 of a 4-wk cycle, generally grade 1-2) was “diarrhea, fatigue, nausea, anorexia, constipation, and dyspnea” and the “Objective response rate (CR + PR)” value ([14]; ALK+ patients, 4/8) was 50%. The “Best response reported, cohort C” value ([14]; Cohort C: EGFR wild-type, KRAS wild-type) was “durable partial response (PR)” and the Tolerability ([14]; single agent, 200 mg/m^2 once weekly) was “well-tolerated in patients with NSCLC at 200 mg/m^2 once weekly without severe liver, ocular, cardiovascular or renal toxicity”.
